# The source made the active and inactive calls. The calls are words filed in the database; no cut-off is given here.
# Key:
# [1] = Antioxidant activity assessed as reduction of Fe3+-TPTZ to Fe2+-TPTZ measured every 15 secs for 4 mins by FRAP assay; type: functional
# [2] = test system: HT-22; assay: Neuroprotective activity against glutamate-induced mouse HT22 cells assessed as increase in cell survival at 25 to 50 uM cotreated with glutamate measured after 24 hrs by MTT assay; type: functional, cell-based
# [3] = biological target: T1, Microtubule-associated protein tau (Homo sapiens, UniProt P10636); assay: Inhibition of tau (unknown origin) aggregation expressed in Escherichia coli (DE3) incubated for overnight by Th-S fluorescence staining based UV-Vis spectrophotometer
# [4] = test system: HT-22; assay: Neurotoxicity against mouse HT22 cells assessed as decrease in cell viability at 10 uM measured after 24 hrs by MTT assay; type: toxicity, cell-based; details: ht-22, 24 h
# [5] = test system: PC-12; assay: Induction of rat PC12 cells differentiation assessed as neurite outgrowth at 10 uM after 24 hrs relative to control; type: functional
# [6] = biological target: T2, Amyloid-beta precursor protein (Homo sapiens, UniProt P05067); assay: Inhibition of amyloid beta 42 (unknown origin) expressed in Escherichia coli BL21 (DE3) aggregation at 10 uM incubated for overnight by Th-S fluorescence staining based UV-Vis spectrophotometer (reference value: 0 +/- 1%)
# [7] = biological target: T1, Microtubule-associated protein tau; assay: Inhibition of tau (unknown origin) aggregation expressed in Escherichia coli (DE3) at 10 uM incubated for overnight by Th-S fluorescence staining based UV-Vis spectrophotometer (reference value: 0.0 +/- 1.4%)
# [8] = biological target: T2, Amyloid-beta precursor protein; assay: Inhibition of amyloid beta 42 (unknown origin) expressed in Escherichia coli BL21 (DE3) aggregation at 100 uM incubated for overnight by Th-S fluorescence staining based UV-Vis spectrophotometer (reference value: 0 +/- 4.4%)
# [9] = biological target: T2, Amyloid-beta precursor protein; assay: Inhibition of amyloid beta 42 (unknown origin) expressed in Escherichia coli BL21 (DE3) aggregation incubated for overnight by Th-S fluorescence staining based UV-Vis spectrophotometer
# [10] = test system: BV-2; assay: Antiinflammatory activity in mouse BV2 cells assessed as inhibition of LPS-induced microglial activation after 24 hrs by Griess reagent based assay; type: functional, cell-based; details: BV-2, 24 h
# [11] = test system: HT-22; assay: Neuroprotective activity against IAA-induced ischemia in mouse HT22 cells assessed as increase in cell viability cotreated with IAA for 2 hrs followed by IAA wash out measured after 24 hrs by MTT assay; type: functional, cell-based
# [12] = test system: HT-22; assay: Neuroprotective activity against glutamate-induced mouse HT22 cells assessed as increase in cell survival at 10 uM cotreated with glutamate measured after 24 hrs by MTT assay; type: functional, cell-based
# [13] = biological target: T1, Microtubule-associated protein tau; assay: Inhibition of tau (unknown origin) aggregation expressed in Escherichia coli (DE3) at 100 uM incubated for overnight by Th-S fluorescence staining based UV-Vis spectrophotometer (reference value: 0.0 +/- 2.4%)
# [14] = Antioxidant activity assessed as ferric ion reduction by measuring FeSO4 equivalents reducing Fe3+-TPTZ to Fe2+-TPTZ measured every 15 secs for 4 mins by FRAP assay; type: functional
# [15] = test system: HT-22; assay: Neuroprotective activity against glutamate-induced mouse HT22 cells assessed as increase in cell survival at 25 uM cotreated with glutamate measured after 24 hrs by MTT assay; type: functional, cell-based
# [16] = test system: HT-22; assay: Neurotoxicity against mouse HT22 cells assessed as decrease in cell viability at 25 uM measured after 24 hrs by MTT assay; type: toxicity, cell-based; details: ht-22, 24 h
# [17] = test system: HT-22; assay: Neuroprotective activity against glutamate-induced mouse HT22 cells assessed as increase in cell survival at 5 to 25 uM cotreated with glutamate measured after 24 hrs by MTT assay; type: functional, cell-based
# [18] = Metabolic stability of the compound in human pooled plasma assessed as compound remaining at 50 uM after 4 hrs by LCMS analysis; type: ADME, cell-free; details: read-out: Stability
# [19] = Drug metabolism in human pooled plasma assessed as 7-Oferuloyl-2,3-dehydrosilibinin formation at 50 uM up to 24 hrs by LCMS analysis; type: ADME, cell-free
# [20] = Stability of the compound in assay medium at 50 uM by LCMS analysis; type: physicochemical; details: TDE = time-dependent effect
# [21] = test system: HT-22; assay: Neuroprotective activity against glutamate-induced mouse HT22 cells assessed as cell survival at 10 to 25 uM cotreated with glutamate measured after 24 hrs by MTT assay relative to control; type: functional
# [22] = Half life in human pooled plasma at 50 uM up to 24 hrs by LCMS analysis; type: ADME, cell-free
# [23] = Stability of the compound in assay medium at 50 uM after 24 hrs by LCMS analysis; type: physicochemical; details: read-out: Stability
# [24] = Metabolic stability of the compound in human pooled plasma at 50 uM by LCMS analysis; type: ADME, cell-free; details: TDE = time-dependent effect
# [25] = Drug metabolism in human pooled plasma assessed as cleavage of ester bond at 50 uM up to 24 hrs by LCMS analysis; type: ADME, cell-free
# [26] = test system: HT-22; assay: Neuroprotective activity against glutamate-induced mouse HT22 cells assessed as increase in cell survival at 1 to 25 uM using 1:1 test compound to ferulic acid ratio cotreated with glutamate measured after 24 hrs by MTT assay; type: functional, cell-based
# [27] = test system: HT-22; assay: Neurotoxicity against mouse HT22 cells assessed as decrease in cell viability at 25 uM using 1:1 test compound to cinnamic acid ratio measured after 24 hrs by MTT assay; type: toxicity, cell-based; details: ht-22, 24 h
# [28] = test system: HT-22; assay: Neuroprotective activity against glutamate-induced mouse HT22 cells assessed as increase in cell survival at 1 to 25 uM cotreated with glutamate measured after 24 hrs by MTT assay; type: functional, cell-based
# [29] = Antioxidant activity assessed as reduction of Fe3+-TPTZ to Fe2+-TPTZ using equimolar mixture of test compound and cinnamic acid measured every 15 secs for 4 mins by FRAP assay; type: functional
# [30] = test system: HT-22; assay: Neurotoxicity against mouse HT22 cells assessed as decrease in cell viability at 25 uM using 1:1 test compound to ferulic acid ratio measured after 24 hrs by MTT assay; type: toxicity, cell-based; details: ht-22, 24 h
# [31] = Antioxidant activity assessed as reduction of Fe3+-TPTZ to Fe2+-TPTZ using 1:1 test compound to ferulic acid ratio measured every 15 secs for 4 mins by FRAP assay; type: functional
# [32] = test system: HT-22; assay: Neuroprotective activity against glutamate-induced mouse HT22 cells assessed as increase in cell survival at 1 to 25 uM using 1:1 test compound to silibinin ratio cotreated with glutamate measured after 24 hrs by MTT assay; type: functional, cell-based
# [33] = Antioxidant activity assessed as reduction of Fe3+-TPTZ to Fe2+-TPTZ using 1:1 test compound to silibinin ratio measured every 15 secs for 4 mins by FRAP assay; type: functional
# [34] = test system: HT-22; assay: Neurotoxicity against mouse HT22 cells assessed as decrease in cell viability at 25 uM using 1:1 test compound to silibinin ratio measured after 24 hrs by MTT assay; type: toxicity, cell-based; details: ht-22, 24 h
# [35] = Antioxidant activity assessed as reduction of Fe3+-TPTZ to Fe2+-TPTZ using equimolar mixture of test compound and silibinin measured every 15 secs for 4 mins by FRAP assay; type: functional
# [36] = test system: HT-22; assay: Neuroprotective activity against glutamate-induced mouse HT22 cells assessed as cell survival at 25 uM cotreated with glutamate measured after 24 hrs by MTT assay relative to control; type: functional
# T1 sequence (P10636 whole entry): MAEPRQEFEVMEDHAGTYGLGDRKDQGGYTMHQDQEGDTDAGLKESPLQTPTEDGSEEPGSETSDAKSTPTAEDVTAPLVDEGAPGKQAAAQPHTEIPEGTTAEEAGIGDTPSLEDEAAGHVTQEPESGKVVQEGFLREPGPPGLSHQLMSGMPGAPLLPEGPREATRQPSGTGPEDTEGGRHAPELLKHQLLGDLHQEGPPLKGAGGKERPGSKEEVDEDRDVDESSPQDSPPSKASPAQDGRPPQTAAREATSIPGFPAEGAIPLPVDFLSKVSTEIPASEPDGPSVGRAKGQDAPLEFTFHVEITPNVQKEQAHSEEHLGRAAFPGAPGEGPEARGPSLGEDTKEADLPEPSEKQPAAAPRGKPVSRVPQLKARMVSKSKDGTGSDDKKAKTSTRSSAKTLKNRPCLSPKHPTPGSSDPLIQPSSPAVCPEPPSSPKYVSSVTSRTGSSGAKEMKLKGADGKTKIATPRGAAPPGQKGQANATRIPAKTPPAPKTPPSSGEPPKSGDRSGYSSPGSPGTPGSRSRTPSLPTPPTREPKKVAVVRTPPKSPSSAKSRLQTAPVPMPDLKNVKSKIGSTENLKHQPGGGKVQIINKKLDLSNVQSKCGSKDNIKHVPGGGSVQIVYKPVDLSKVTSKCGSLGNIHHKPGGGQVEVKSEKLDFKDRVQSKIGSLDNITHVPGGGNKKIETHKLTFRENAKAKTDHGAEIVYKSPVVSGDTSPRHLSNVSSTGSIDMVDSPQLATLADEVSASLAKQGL
# T2 sequence (P05067 whole entry): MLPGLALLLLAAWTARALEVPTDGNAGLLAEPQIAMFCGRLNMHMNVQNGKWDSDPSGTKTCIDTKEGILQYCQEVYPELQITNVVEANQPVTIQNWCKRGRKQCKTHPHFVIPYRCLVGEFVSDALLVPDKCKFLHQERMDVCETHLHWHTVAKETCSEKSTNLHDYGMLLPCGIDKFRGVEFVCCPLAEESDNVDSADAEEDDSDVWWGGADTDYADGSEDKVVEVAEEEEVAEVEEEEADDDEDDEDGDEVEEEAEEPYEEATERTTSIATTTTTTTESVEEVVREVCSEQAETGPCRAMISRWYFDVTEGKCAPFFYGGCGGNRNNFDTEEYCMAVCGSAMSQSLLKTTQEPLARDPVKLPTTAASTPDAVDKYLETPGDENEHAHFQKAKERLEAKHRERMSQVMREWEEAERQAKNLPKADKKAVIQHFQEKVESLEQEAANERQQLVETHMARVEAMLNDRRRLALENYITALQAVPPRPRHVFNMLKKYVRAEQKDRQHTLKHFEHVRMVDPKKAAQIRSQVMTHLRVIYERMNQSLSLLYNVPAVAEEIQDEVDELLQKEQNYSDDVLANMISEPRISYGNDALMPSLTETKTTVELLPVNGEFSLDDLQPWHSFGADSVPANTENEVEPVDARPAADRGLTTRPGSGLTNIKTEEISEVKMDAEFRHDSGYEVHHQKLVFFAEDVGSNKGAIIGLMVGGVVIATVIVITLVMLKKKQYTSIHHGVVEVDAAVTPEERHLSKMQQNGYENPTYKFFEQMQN
structure (smiles),measurement,setting,value
COc1cc(C2Oc3cc([C@H]4Oc5cc(OC(=O)/C=C/c6cc(OC)c(O)c(OC)c6)cc(O)c5C(=O)[C@@H]4O)ccc3OC2CO)ccc1O (stereo partly specified),Activity,[1],Active
same,Activity,[2],Active
COc1cc(/C=C/C(=O)Oc2cc(O)c3c(c2)O[C@H](c2ccc4c(c2)O[C@@H](c2ccc(O)c(OC)c2)[C@H](CO)O4)[C@@H](O)C3=O)ccc1O,IC50,[3],12.9 µM
same,Activity,[4],Toxic
same,Activity,[1],Active
same,Activity,[5],67%
same,inhibition,[6],14.2%
same,inhibition,[7],44.5%
same,inhibition,[8],73%
same,IC50,[9],43.6 µM
same,EC50,[10],10.1 µM
same,EC50,[11],2.2 µM
same,Activity,[12],Active
same,inhibition,[13],84%
O=C1O[C@H]([C@@H](O)CO)C(O)=C1O,Activity,[14],2 equiv
COc1cc(C2Oc3cc([C@H]4Oc5cc(OC(=O)CCc6cc(OC)c(O)c(OC)c6)cc(O)c5C(=O)[C@@H]4O)ccc3OC2CO)ccc1O (stereo partly specified),Activity,[1],Active
same,Activity,[2],inactive
COc1cc(C2Oc3cc([C@H]4Oc5cc(OC(=O)/C=C/c6ccccc6)cc(O)c5C(=O)[C@@H]4O)ccc3OC2CO)ccc1O (stereo partly specified),Activity,[15],inactive
same,Activity,[1],inactive
same,Activity,[5],40%
same,inhibition,[6],17.1%
same,inhibition,[7],37.1%
same,Activity,[16],Non-Toxic
same,inhibition,[8],61.1%
same,EC50,[10],4.2 µM
same,Activity,[2],Active
same,EC50,[11],1.5 µM
same,Activity,[12],Active
same,inhibition,[13],76.1%
same,Activity,[17],Active
COc1cc(C(=O)Oc2cc(O)c3c(c2)O[C@H](c2ccc4c(c2)OC(c2ccc(O)c(OC)c2)C(CO)O4)[C@@H](O)C3=O)ccc1O (stereo partly specified),Activity,[15],Active
same,Activity,[1],Active
COc1cc(C2Oc3cc([C@H]4Oc5cc(OC(=O)CCc6ccc7c(c6)OC(C)(C)O7)cc(O)c5C(=O)[C@@H]4O)ccc3OC2CO)ccc1O (stereo partly specified),Activity,[1],inactive
same,Activity,[2],inactive
COc1cc(C2Oc3cc([C@H]4Oc5cc(O)cc(O)c5C(=O)[C@@H]4O)ccc3OC2COC(=O)/C=C/c2ccccc2)ccc1O (stereo partly specified),Activity,[15],Active
same,Activity,[12],inactive
COc1cc(C2Oc3cc([C@H]4Oc5cc(OC(=O)c6ccc7c(c6)OC(C)(C)O7)cc(O)c5C(=O)[C@@H]4O)ccc3OC2CO)ccc1O (stereo partly specified),Activity,[15],inactive
same,Activity,[1],inactive
same,Activity,[12],Active
COc1cc(/C=C/C(=O)Oc2cc(O)c3c(c2)O[C@H](c2ccc4c(c2)O[C@H](c2ccc(O)c(OC)c2)[C@@H](CO)O4)[C@@H](O)C3=O)ccc1O,IC50,[3],27.2 µM
same,Activity,[4],Toxic
same,Activity,[1],Active
same,Activity,[5],50%
same,inhibition,[6],13.2%
same,inhibition,[7],36.8%
same,inhibition,[8],52.7%
same,IC50,[9],85.5 µM
same,EC50,[10],9.8 µM
same,EC50,[11],1.4 µM
same,inhibition,[13],67.2%
COc1cc(C2Oc3cc([C@H]4Oc5cc(OC(=O)c6cc(OC)c(O)c(OC)c6)cc(O)c5C(=O)[C@@H]4O)ccc3OC2CO)ccc1O (stereo partly specified),Activity,[15],Active
same,Activity,[1],Active
COc1cc(C2Oc3cc([C@H]4Oc5cc(OC(=O)CCc6ccccc6)cc(O)c5C(=O)[C@@H]4O)ccc3OC2CO)ccc1O (stereo partly specified),Activity,[1],inactive
same,Activity,[2],inactive
COc1cc(/C=C/C(=O)Oc2cc(O)c3c(c2)O[C@H](c2ccc4c(c2)OC(c2ccc(O)c(OC)c2)C(CO)O4)[C@@H](O)C3=O)ccc1O (stereo partly specified),"remaining at 4 h, 50 µM",[18],20%
same,Drug metabolism,[19],Metabolite_Notdetected
same,Stability,[20],Tde
same,Activity,[1],Active
same,Activity,[5],47%
same,Survival,[21],50%
same,inhibition,[6],16.8%
same,inhibition,[7],30.4%
same,Activity,[16],Toxic
same,half-life at 50 µM,[22],1.5 h
same,inhibition,[8],54.4%
same,"remaining at 24 h, 50 µM",[23],25%
same,Stability,[24],Tde
same,EC50,[10],6.5 µM
same,EC50,[11],> 10 µM
same,inhibition,[13],64.7%
same,Drug metabolism,[25],Metabolite_Detected
Cc1c(C)c2c(c(C)c1O)CCC(C)(C(=O)O)O2 (stereo unspecified),Activity,[14],1.8 equiv
COc1cc(C2Oc3cc([C@H]4Oc5cc(OC(=O)/C=C/c6ccc7c(c6)OC(C)(C)O7)cc(O)c5C(=O)[C@@H]4O)ccc3OC2CO)ccc1O (stereo partly specified),Activity,[15],inactive
same,Activity,[1],inactive
same,Activity,[2],Active
same,Activity,[12],Active
COc1cc(C2Oc3cc([C@H]4Oc5cc(O)cc(O)c5C(=O)[C@@H]4O)ccc3OC2CO)ccc1O (stereo partly specified) [SILIBININ],Activity,[26],inactive
same,Activity,[5],38%
same,Activity,[27],Toxic
same,Activity,[28],inactive
same,Activity,[29],Active
same,inhibition,[6],4.8%
same,inhibition,[7],2%
same,Activity,[16],Non-Toxic
same,Activity,[30],Toxic
same,inhibition,[8],16%
same,EC50,[10],> 10 µM
same,EC50,[11],> 10 µM
same,inhibition,[13],10.1%
same,Activity,[31],Active
same,Activity,[14],0.6 equiv
COc1cc(/C=C/C(=O)O)ccc1O [FERULATE],Activity,[32],inactive
same,Activity,[1],Active
same,Activity,[5],inactive
same,Activity,[28],inactive
same,Activity,[16],Non-Toxic
same,Activity,[33],Active
same,EC50,[10],> 10 µM
same,EC50,[11],> 10 µM
same,Activity,[34],Toxic
COc1cc(C2Oc3cc([C@H]4Oc5cc(OC(=O)c6ccccc6)cc(O)c5C(=O)[C@@H]4O)ccc3OC2CO)ccc1O (stereo partly specified),Activity,[15],inactive
same,Activity,[1],inactive
COc1cc(CCC(=O)Oc2cc(O)c3c(c2)O[C@H](c2ccc4c(c2)OC(c2ccc(O)c(OC)c2)C(CO)O4)[C@@H](O)C3=O)ccc1O (stereo partly specified),Activity,[1],Active
same,Activity,[2],inactive
O=C(O)/C=C/c1ccccc1 [CINNAMIC ACID],Activity,[35],Active
same,Activity,[1],inactive
same,Activity,[5],inactive
same,EC50,[10],> 10 µM
same,EC50,[11],> 10 µM
same,Activity,[34],Toxic
O=c1c(O)c(-c2ccc(O)c(O)c2)oc2cc(O)cc(O)c12 [QUERCETIN],Survival,[36],80%

# From ChEMBL document CHEMBL4196016, “Regioselective synthesis of 7-O-esters of the flavonolignan silibinin and SARs lead to compounds with overadditive neuroprotective effects” (Eur J Med Chem, 2018)
